Source: US20130071897A1, “METHOD FOR CONTROLLING UNDESIRABLE BYPRODUCTS FORMATION CAUSED BY CONTAMINATING ORGANISMS IN THE PRODUCTION OF ETHANOL FROM SYNGAS” (COSKATA, INC., priority 2011, published 2013)
Several values for one entry are separate records, joined by “and”; a condition that tells them apart may be missing. Equal entries are not always repeated.

How the values were obtained:
Type in all cases: cell-based
C. autoethanogenum = assay: Balch tube batch growth of homoacetogen C. autoethanogenum on fructose, optical density; conditions: added 21 h after inoculation
[1] = tested on: Clostridium tyrobutyricum; assay: Balch tube batch growth of strict butyrogen Clostridium tyrobutyricum on fructose, optical density; conditions: added 21 h after inoculation
[2] = tested on: Clostridium tyrobutyricum; assay: Serum bottle batch fermentation of Clostridium tyrobutyricum on fructose, optical density; conditions: for O.D. Response: 5 mM, duplicates A and B
Method: Ethyl 3-(trifluoromethyl)benzoate is evaluated in a series of batch fermentations to determine the growth response of butyrogens to the presence of this compound at varying concentrations. The batch fermentations are conducted by anoxically filling 100 mL serum bottles with 15 mL of media having the composition given in Tables 12 and 13. About 0.15 mL of a 50% w/w solution of fructose in water (final fructose concentration about 5 g/L) is provided in the bottles. Duplicate runs are conducted for each concentration.
(§1) Each bottle is inoculated with 1.5 mL of seed culture inoculum of the strict butyrogen Clostridium tyrobutyricum, which has an OD of about 0.40 (which upon a 10 times dilution provides a starting OD for the fermentation of about 0.04). The bottles are maintained at a temperature of 37° C. Two hours after inoculation of the bottles with the bacteria, the compound is added to different bottles as a solution in 50 μL of N-methylpyrrolidone in the amounts indicated in Table 15. The fermentation process is allowed to progress at 37° C. At selected intervals of time, bacterial growth is measured by reading the optical density (OD) of the fermentation liquid. Optical density is measured by anoxically removing an aliquot of fermentation liquid and adding it to a disposable cuvette. OD's ranging between 0.01 and 0.4 are measured directly, while OD's greater than 0.4 are measure after performing a 1/10 dilution with water.
In this example ethyl 4,4,4-trifluoro-3-(trifluoromethyl)crotonate and ethyl 3-trifluoromethyl-4-methoxybenzoate are evaluated by batch fermentation. The batch fermentations are conducted by anoxically filling 100 mL serum bottles with 15 mL of media having the composition given in Tables 12 and 13. About 0.15 mL of a 50% w/w solution of fructose in water (final fructose concentration about 5 g/L) is provided in the bottles. Duplicate runs are conducted for each concentration.
as §1, with “of about 0.42 (which upon” for “of about 0.40 (which upon”, “of about 0.042). The bottles” for “of about 0.04). The bottles”, “in Table 16 and 17. The fermentation” for “in Table 15. The fermentation”, “0.4 are measured after performing” for “0.4 are measure after performing”

Structure (SMILES)	Optical density valuation of C. autoethanogenum (C. autoethanogenum; 10 ppm(m))	Optical density valuation of C. autoethanogenum (C. autoethanogenum; 100 ppm(m))	Optical density valuation of C. autoethanogenum (C. autoethanogenum; 500 ppm(m))	Optical density valuation of C. autoethanogenum (C. autoethanogenum; 1000 ppm(m))	Optical density valuation of C. autoethanogenum (C. autoethanogenum; 5000 ppm(m))	Optical density valuation of C. autoethanogenum (C. autoethanogenum; 10000 ppm(m))	Optical density valuation of C. tyrobutyricum ([1]; 100 ppm(m))	Optical density valuation of C. tyrobutyricum ([1]; 500 ppm(m))	Optical density valuation of C. tyrobutyricum ([1]; 1000 ppm(m))	Optical density valuation of C. autoethanogenum (C. autoethanogenum; 1 ppm(m))	Optical density valuation of C. autoethanogenum (C. autoethanogenum; 5 ppm(m))	Optical density valuation of C. autoethanogenum (C. autoethanogenum; 50 ppm(m))	other results
O=C(O)C=C(C(F)(F)F)C(F)(F)F [D, 4,4,4-trifluoro-3-(trifluoromethyl)crotonic acid]	+ (bacterial growth to an OD of approximately 2 or above)	+ (bacterial growth to an OD of approximately 2 or above)	+ (bacterial growth to an OD of approximately 2 or above)	+/− (to an optical density in a range of 0.5 to 1.5)	− (failure of bacterial growth to reach an optical density of approximately 0.5)	− (failure of bacterial growth to reach an optical density of approximately 0.5)	+ (bacterial growth to an OD of approximately 1.8 or above)	+ (bacterial growth to an OD of approximately 1.8 or above)	+ (bacterial growth to an OD of approximately 1.8 or above)	–	–	–	–
CCOC(=O)/C=C(\N)C(F)(F)F [B, ethyl-3-amino-4,4,4-trifluorocrotonate]	+ (bacterial growth to an OD of approximately 2 or above)	+ (bacterial growth to an OD of approximately 2 or above)	+ (bacterial growth to an OD of approximately 2 or above)	+ (bacterial growth to an OD of approximately 2 or above)	+/− (to an optical density in a range of 0.5 to 1.5)	− (failure of bacterial growth to reach an optical density of approximately 0.5)	+ (bacterial growth to an OD of approximately 1.8 or above)	+ (bacterial growth to an OD of approximately 1.8 or above)	+ (bacterial growth to an OD of approximately 1.8 or above)	+ (bacterial growth to an OD of approximately 2 or above)	+ (bacterial growth to an OD of approximately 2 or above)	+ (bacterial growth to an OD of approximately 2 or above)	O.D. Response to Varying Inhibitor Concentrations ([2]; 100 ppm, 22.5 Hours, added 25 h after inoculation): 0.84; O.D. Response to Varying Inhibitor Concentrations ([2]; 100 ppm, 28.5 Hours): 1.48; O.D. Response to Varying Inhibitor Concentrations ([2]; 100 ppm, 43.5 Hours): 1.53; O.D. Response to Varying Inhibitor Concentrations ([2]; 250 ppm, 22.5 Hours, added 25 h after inoculation): 0.86; O.D. Response to Varying Inhibitor Concentrations ([2]; 250 ppm, 28.5 Hours): 1.87; O.D. Response to Varying Inhibitor Concentrations ([2]; 250 ppm, 43.5 Hours): 1.92; O.D. Response to Varying Inhibitor Concentrations ([2]; 500 ppm, 22.5 Hours, added 25 h after inoculation): 0.80; O.D. Response to Varying Inhibitor Concentrations ([2]; 500 ppm, 28.5 Hours): 0.93; O.D. Response to Varying Inhibitor Concentrations ([2]; 500 ppm, 43.5 Hours): 1.00; O.D. Response to Varying Inhibitor Concentrations ([2]; 1000 ppm, 22.5 Hours, added 25 h after inoculation): 0.70; O.D. Response to Varying Inhibitor Concentrations ([2]; 1000 ppm, 28.5 Hours): 0.77; O.D. Response to Varying Inhibitor Concentrations ([2]; 1000 ppm, 43.5 Hours): 0.78
CCOC(=O)C=C(C(F)(F)F)C(F)(F)F [Compound A, ethyl 4,4,4-trifluoro-3-(trifluoromethyl)crotonate]	+ (bacterial growth to an OD of approximately 2 or above)	+ (bacterial growth to an OD of approximately 2 or above)	+ (bacterial growth to an OD of approximately 2 or above)	+ (bacterial growth to an OD of approximately 2 or above)	− (failure of bacterial growth to reach an optical density of approximately 0.5)	− (failure of bacterial growth to reach an optical density of approximately 0.5)	+ (bacterial growth to an OD of approximately 1.8 or above)	+/− (to an optical density in a range of 0.7 to 1.5)	− (failure of bacterial growth to reach an optical density of approximately 0.7)	+ (bacterial growth to an OD of approximately 2 or above)	+ (bacterial growth to an OD of approximately 2 or above)	+ (bacterial growth to an OD of approximately 2 or above)	O.D. Response ([2]; 0 Hours, added 2 h after inoculation): 0.42; O.D. Response ([2]; 2 Hours, added 2 h after inoculation): 0.10; O.D. Response ([2]; 4.5 Hours): 0.14 and 0.11; O.D. Response ([2]; 6 Hours): 0.13; O.D. Response ([2]; 24 Hours): 0.12
